How the values were obtained:
[1] = tested on: sheep model of diffuse traumatic brain injury; experiment: Brain tissue oxygenation (PbtO2) in the sheep model of diffuse traumatic brain injury; assay type: in vivo
From the text: (§1) Briefly, 2-year-old male Merino sheep were impacted in the left temporal region by a humane stunner. Sheep were continuously anesthetized and ventilated using 2.5% isoflurane in oxygen (4 L/min). Animals were then placed into a prone sphinx position, and restrained to the table, leaving the neck and head mobile relative to the body. Impact injury was induced at the midpoint between the left supraorbital process and the left external auditory meatus using a Captive humane bolt stunner armed with a number 7 red charge (model KML, Karl Schermer & Co., Germany). The injury produced by this method has been fully characterised, and mimics that seen in human TBI victims. (Lewis, S. B., Finnie, J. W., Blumbergs, P. C., Scott, G., Manavis, J. Brown, C., Reilly, P. L., Jones, N. R., McLean, A. J. (1996) A head impact model of early axonal injury in the sheep. J Neurotrauma 13, 505-514.)
The injury was carried out in sheep as previously described. In addition to the burr hole for ICP monitoring, a second burr hole 1 cm lateral to the sagittal midline and over the left fronto-parietal suture allowed insertion of the distal end of a LICOX® PbtO2 probe to a depth of 2 cm. The probe was attached to a LICOX® brain tissue oxygen monitoring system (Integra, USA) for digital recording. After insertion of the probes, both burr holes were sealed using bone wax. ICP and PbtO2 was recorded every 30 min for a period of 4 hours.

[2] = tested on: sheep model of diffuse traumatic brain injury; experiment: Intracranial pressure in the sheep model of diffuse traumatic brain injury; assay type: in vivo; conditions: administered at 30 min after injury
Experimental: Following traumatic injury, intracranial pressure was measured in the sheep using a standard neurosurgical “bolt” and pressure transducer (FIG. 3).
as §1
After injury, animals were stabilised and the heads restrained to the operating table to facilitate insertion of intracranial pressure (ICP) and brain tissue oxygenation (PbtO2) probes between 15 and 30 min after trauma. Following exposure of the skull, a 5.8 mm burr hole was performed at a point 4 cm lateral to the sagittal midline on the ipsilateral side, the dura matter opened and a calibrated Codman Microsensor ICP transducer inserted such that the tip of the sensor was 1.5 cm into the parenchyma of the left parietal lobe. The probe was attached to a Codman ICP Express monitoring system (Codman and Shurtleff Inc., USA) for digital recording.

[3] = tested on: blood brain barrier permeability after injury; experiment: Attenuation of blood brain barrier permeability after injury (dose finding); assay type: in vivo, rat; conditions: intravenous, 30 min after induction of injury
Experimental: N-acetyl-tryptophan was dissolved in sterile, normal saline, and administered by intravenous injection at 30 min after induction of injury. […] The optimal dose, based on the ability of the drug to attenuate blood brain barrier permeability after injury, was 2.5 mg/kg.

[4] = tested on: rat model of traumatic brain injury; experiment: Diffusion weighted imaging of cerebral oedema after severe diffuse traumatic brain injury; assay type: in vivo; conditions: severe diffuse TBI, treatment 30 min after insult, 10^-5 mol/kg, imaged 5 h after injury
From the text: After a traumatic injury (left-hand panel), areas of hyperintensity reflect an increased ADC, which at this early time point is indicative of vasogenic edema.
In order to observe whether a substance P receptor antagonist could facilitate the movement of water out of the brain, we carried out nuclear magnetic resonance spectroscopy (NMR) studies using a rat model of traumatic brain injury. Diffusion-weighted NMR images were generated following trauma (FIG. 2, left-hand panel).
Following injury, a number of “brighter” areas are clearly visible within the brain. These “bright” areas correlate with regions where extracellular water is gathering within the brain.

[5] = tested on: aquaporin 4 (AQP-4); experiment: Perivascular AQP-4 immunostaining (electron microscopy) after diffuse traumatic brain injury; assay type: in vivo; conditions: rat diffuse TBI, intravenous injection at 30 min after injury, 5 h after injury
From the text: We decided to study the water channels associated with the cerebral vasculature, and in particular aquaporin 4 (AQP-4), in order to see whether there were any changes in the expression of these channels. For these studies, a rat model was used, and raised ICP was induced by diffuse traumatic brain injury. In this model, a traumatic brain injury was induced using the impact-acceleration model. Briefly, the impact-acceleration device delivers an accelerating blow centrally on to the dorsal surface of the skull of halothane anesthetized male Sprague-Dawley rats (380-420 g). The point of impact was protected with a stainless steel disc to prevent skull fracture, while the head was subsequently decelerated using either a foam or gel filled cushion. For severe injury, the 450 g brass weight is dropped from a height of 2 metres. The impact results in extensive, diffuse neuropathological damage throughout the brain with associated neurological deficits. Immunohistochemical labelling was used to investigate the expression of aquaporin-4 (FIG. 1). Briefly, electron microscopy of AQP-4 used a rabbit polyclonal antibody (Alpha Diagnostic International, Inc., San Antonio) as the primary antibody, with immunolabelling completed using biotinylated secondary antibody (goat anti-rabbit IgG) and streptavidin-peroxidase complex (Rockland, Gilbertsville, Pa.). […]

[6] = tested on: rat diffuse traumatic brain injury model; experiment: ICP after diffuse traumatic brain injury plus hypoxia in the rat; assay type: in vivo; conditions: male Sprague Dawley rats, diffuse TBI + 15 min hypoxia
Experimental: Male Sprague Dawley rats were injured using a diffuse traumatic brain injury model, and then made hypoxic for a period of 15 minutes, before being ventilated on normal air. ICP was monitored using a Codman ICP pressure sensor for the ensuing 4 hours. After injury, ICP increased from a mean of 4.88±0.12 mm Hg to a mean of 9.23±0.28 mm Hg, an increase of 96%. Treatment with the NK1 antagonist, NAT, reduced ICP by a mean value 21%. […] Male Sprague Dawley rats were injured using the widely accepted diffuse traumatic brain injury model, and then made hypoxic for a period of 15 minutes, before being ventilated on normal air. ICP was monitored using a Codman ICP pressure sensor for the ensuing 4 hours. After injury, ICP increased from a mean of 4.88±0.12 mm Hg to a mean of 9.23±0.28 mm Hg, an increase of 96%. Treatment with the NK1 antagonist, NAT, reduced ICP by a mean value 21% (FIG. 6).

Structure (SMILES): CC(=O)N[C@@H](Cc1c[nH]c2ccccc12)C(=O)O [N-acetyl-L-tryptophan]
- time for brain oxygen levels to be back to normal limits ([1]; NK1 receptor antagonist after injury): 3 to 4 h
- effect on brain oxygen levels ([1]; administered at 30 min after injury, listed as N-Acetyl Tryptophan): Restores Oxygen Levels to Normal
- effect on brain oxygen levels ([1]; administered at 30 min after injury, listed as NK1 antagonist): immediate improvement in brain oxygen status
- effect on brain oxygen levels ([1]; administered at 30 min after injury, listed as NK1 receptor antagonist): oxygen levels start to rapidly recover
- time after TBI by which brain oxygen values returned to normal (control) levels ([1]; administered at 30 min after injury, time after TBI): ≤ 4 h
- effect on intracranial pressure (ICP) ([2]; listed as N-Acetyl Tryptophan): Reduces Intracranial Pressure
- effect on intracranial pressure (ICP) ([2]; listed as NK1 antagonist): immediately decrease in ICP
- time for ICP to return to normal (sham) levels after administration ([2]; listed as NK1 antagonist): 3 h
- effect on intracranial pressure (ICP) ([2]; listed as NK1 receptor antagonist): ICP always fell
- time for ICP to return to normal (sham) levels after administration ([2]; listed as NK receptor antagonist): 3 to 4 h
- optimal dose, based on ability to attenuate blood brain barrier permeability after injury [3]: 2.5 mg/kg
- cerebral oedema (areas of hyperintensity / water gathering) on diffusion-weighted images [4]: no indication of any water gathering in these areas
- cerebral oedema (areas of hyperintensity / water gathering) on diffusion-weighted images ([4]; listed as NK1 antagonist): clearly reduces areas of hyperintensity
- expression of aquaporin-4 (perivascular AQP-4 channels) [5]: rise in the expression of aquaporin-4 to, or indeed above, pre-injury levels
- expression of aquaporin-4 (perivascular AQP-4 channels) ([5]; listed as NAT): rapid restoration of AQP-4 channels
- functional outcome relative to vehicle treated controls [6]: significant improvement in functional outcome
- mean reduction of ICP ([6]; ICP monitored 4 hours): 21%
